Measured values reported in patent publication US20100062465A1, “Detection of Histone Deacetylase Inhibition” (priority 2006, published 2010).
Where “and” joins values, the source holds several entries; their conditions need not be identical. Identical values can stand only once. Counter-ions that a name gives are not always drawn.

Legend:
[1] = In vivo toxicity of BLT after intraperitoneal injection; conditions: intraperitoneal 100 mg/kg once a week on three subsequent weeks
HDAC = assay: Fluor de Lys fluorometric assay of HDAC activity in PC3 cells; format: cell-based, human; conditions: for HDAC activity (relative to controls): 24 h
Experimental: Briefly 20×10^3 cells/well were seeded in 96 well plates and incubated for 24 h with (a) 1 mM BLT (b) FSAHA at 2, 5, 10 μM (c) SAHA at 2, 5, 10 μM (d) FSAHA at 2, 5, 7, 8, 9, 10 μM in the presence of 1 mM BLT (e) FSAHA at 2, 5, 7, 8, 9, 10 μM in the presence of vehicle (DMSO). The Fluor de Lys substrate was then added for 1 h, medium removed, cells rinsed with PBS and incubated for 10 minutes with the Fluor-de-Lys developer, and fluorescence read at 460 nm using the Tecan microplate reader as above. Results were normalized to cell density as determined using the WST-1 assay in the same 96 well plate.

[2] = Solubility in growth medium; format: physicochemical; conditions: dissolved in DMSO first
Experimental: Note that controls were treated with DMSO in order to clearly identify effects which are due to the compound being investigated rather than its vehicle (DMSO). FSAHA dose was based on previous findings (Butler L M, Agus D B, Scher H I, et al. Suberoylanilide hydroxamic acid, an inhibitor of histone deacetylase, suppresses the growth of prostate cancer cells in vitro and in vivo. Cancer Res 2000 September 15;60(18):5165-70).

recombinant HDAC8 = target: T1, recombinant HDAC8 (Homo sapiens, UniProt Q9BY41); assay: 19F MRS study of BLT cleavage by recombinant HDAC8; format: biochemical; conditions: 0.6 mM BLT, 28U HDAC-8
T1 construct: purchased Biomol
T1 sequence (Q9BY41 1-377): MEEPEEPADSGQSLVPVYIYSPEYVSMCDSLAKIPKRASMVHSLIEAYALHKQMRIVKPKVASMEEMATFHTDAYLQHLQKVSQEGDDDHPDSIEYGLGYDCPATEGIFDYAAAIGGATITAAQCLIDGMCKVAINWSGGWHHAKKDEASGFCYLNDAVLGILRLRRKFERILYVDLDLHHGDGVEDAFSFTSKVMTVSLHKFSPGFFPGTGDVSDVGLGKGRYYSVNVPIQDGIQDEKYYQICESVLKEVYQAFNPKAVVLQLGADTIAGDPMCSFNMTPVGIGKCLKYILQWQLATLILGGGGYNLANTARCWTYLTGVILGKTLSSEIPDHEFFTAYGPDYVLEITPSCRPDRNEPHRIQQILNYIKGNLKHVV
Experimental: To confirm that MRS can be used to monitor cleavage of the HDAC substrate, 0.6 mM BLT (Advance Chem-Tech, KY USA) was incubated alone or with 28U recombinant HDAC-8 (Biomol PA) in a total volume of 500 μl HDAC assay buffer (Biomol PA. USA, composed of 25 mM Tris/Cl, 137 mM NaCl, 2.7 mM KCl, 1 mM MgCl2 and formulated to maintain HDAC activity). ^19F MRS was used to monitor the decrease in BLT and buildup of the cleavage product trifluoroacetate (TFA) by acquiring ^1H decoupled spectra at 10 min intervals on an Avance DPX 300 Bruker spectrometer (Bruker Biospin, Germany) using a 30 deg. flip angle, 3 s relaxation delay and 128 scans. A sealed insert containing C6F6 served as a quantification and chemical shift reference (−164.9 ppm relative to CFCl3).

subcutaneous PC3 tumors = assay: In vivo 19F MRS of BLT in subcutaneous PC3 tumors; conditions: intraperitoneal 100 mg/kg, 4.7 T
Experimental: As expected, the TFA peak could not be easily resolved in our preliminary in vivo studies. Intratumoral BLT levels may be higher in HDACI-treated tumors compared to controls, and therefore tumoral BLT levels may be used to assess HDAC activity in vivo. Downstream metabolic biomarkers also may be assessed in our preliminary studies. We were able to acquire a ^31P spectrum from PC3 subcutaneous tumors in 30 minutes providing a means for monitoring PC levels. This is consistent with previous studies in which an increase in PC could be monitored as an indicator of response to 17AAG treatment. ^1H MRS, with its greater sensitivity compared to ^31P, could also be used to monitor the total choline signal as a downstream metabolic marker of response to HDAC inhibition.

c-Raf-1 = assay: Western blot analysis of protein levels; format: cell-based, human; conditions: PC3 cells, 10 μM FSAHA in the presence of 1 mM BLT
Experimental: (§1) PC3 cells were lysed using cell lysis buffer (0.1% NP-40, 50 mM HEPES (pH 7.4), 250 mM NaCl, 1 mM dithiothreitol, 1 mM EDTA, 1 mM NaF, 10 mM β-glycerophosphate, 0.1 mM sodium orthovanadate, 1 μl/ml of protease inhibitor cocktail set III (Calbiochem, USA) and 1 mM phenylmethylsulfonyl fluoride). Lysates were centrifuged at 12,000 rpm for 10 min (4° C.), the protein supernatant collected and total protein concentrations determined using Biorad DC Protein assay reagents (Biorad, CA, USA). Proteins were separated by sodium do-decyl sulfate-polyacrylamide gel electrophoresis using 10% gels and transferred electrophoretically to 0.45 μm Nitrocellulose membranes. Membranes were blocked in blocking buffer containing 5% non-fat dry milk in Tris buffered saline (pH 7.6) and 0.1% Tween-20 and incubated overnight at 4° C. with primary antibodies as follows. c-Raf, 1:1000, (Cell Signaling Technology (CST), MA, USA), Cdk4, 1:2000 (CST, MA, USA), Hsp70, 1:2000 (Stressgen, Canada) and GAPDH, 1:5000 (Stressgen, Canada). This was followed by 1 hour incubation with horseradish peroxidase-conjugated secondary anti-rabbit (CST MA, USA) and anti-mouse (CST, MA, USA) antibodies at dilutions of 1:1000 and 1:2000 respectively. Membranes were […] with enhanced chemiluminescence reagents (LumiGLO & Peroxide, CST MA. USA) for 1 minute and exposed to hyperfilm (Amersham Biosciences, USA), which was developed on a Konica SRX-101 automatic developer (Konica, Tokyo, Japan).

cdk4 = assay: Western blot analysis of protein levels; format: cell-based, human; conditions: PC3 cells, 10 μM FSAHA in the presence of 1 mM BLT
Experimental: as §1

Hsp70 = assay: Western blot analysis of protein levels; format: cell-based, human; conditions: PC3 cells, 10 μM FSAHA in the presence of 1 mM BLT
Experimental: as §1

CC(C)(C)OC(=O)N[C@@H](CCCCNC(=O)C(F)(F)F)C(=O)O [BLT, Boc-Lys-TFA-OH]
Toxicity to the animal [1]: no detectable toxicity
HDAC activity levels relative to DMSO-treated controls (HDAC; 24 hours, 1 mM): 102±9%
Solubility in growth medium [2]: low solubility
Cleavage by recombinant HDAC8 monitored by 19F MRS (recombinant HDAC8): substrate of HDAC8
Time the BLT signal remained detectable within the tumor region (subcutaneous PC3 tumors): over 2 hours
MRS detectability in tumor (subcutaneous PC3 tumors; temporal resolution 5 minutes): MRS visible BLT signal

O=C(CCCCCCC(=O)Nc1ccc(F)cc1)NO [FSAHA, 4-Fluorosuberanilohydroxamic acid]
HDAC activity (relative to controls) (HDAC; 2 μM): 93±16%
HDAC activity (relative to controls) (HDAC; 2 μM in the presence of 1 mM BLT): 88±12%
HDAC activity (relative to controls) (HDAC; 5 μM): 58±14%
HDAC activity (relative to controls) (HDAC; 5 μM in the presence of 1 mM BLT): 69±9%
HDAC activity (relative to controls) (HDAC; 10 μM): 41±8%
HDAC activity (relative to controls) (HDAC; 10 μM in the presence of 1 mM BLT): 53±5% and 53%
c-Raf-1 protein level (Western blot) (c-Raf-1): depletion
cdk4 protein level (Western blot) (cdk4): depletion
Induction of Hsp70 (Western blot) (Hsp70): not observed
